Laboratory results published in patent US7015241B2, “Appetite-stimulating agents and remedies for anorexia” (Eisai Co., Ltd., priority 2001, dated 2006).

Key:
BDF1 mice = test: Appetite-stimulating and body weight-increasing effects, intraperitoneal administration once a day for 15 days; assay type: in vivo, mouse; conditions: BDF1 mice (7 weeks old, female), i.p. once a day for 15 days, vs control group; for body weight: FIG. 1; for food intake: FIG. 2
Method: (§1) A subjective compound was suspended in saline containing 3.5% dimethylsulfoxide and 6.5% Tween 80, and intraperitoneally administered to BDF1 mice (7 weeks old, female) in a given amount once a day for 15 days (day 0 to day 14). To mice of a control group, saline containing 3.5% dimethylsulfoxide and 6.5% Tween 80 was intraperitoneally administered. Administration was conducted at 1 p.m. every day, and the body weight (day 0 to day 15) and the food intake since the preceding day (day 1 to day 15) were weighed immediately before the administration. The experiments were conducted using 5 mice per group for each of the drug-administered group and the control group. The numbers of the compound examples are the same as in the list described above (hereinafter, the same applies).

mice = test: Toxicity observation on successive administration to mice for 15 days; assay type: in vivo; conditions: 100 mg/kg and 200 mg/kg successively for 15 days
Method: as §1
Thus, it is considered that the compound represented by the general formula (I) has low toxicity.

Interleukin-1-beta = test: Gene expression analysis of white adipose tissues by GeneChip (Affymetrix) Murine Genome U74A; assay type: in vivo, mouse; conditions: day 15, 200 mg/kg i.p. once a day for 15 days, BDF1 mice, Accession M15131
Method: (§2) The compound of the Compound 17 was suspended in saline containing 3.5% dimethylsulfoxide and 6.5% Tween 80, and intraperitoneally administered to BDF1 mice (7 weeks old, female) in an amount of 200 mg/kg once a day for 15 days (day 0 to day 14). To mice of a control group, saline containing 3.5% dimethylsulfoxide and 6.5% Tween 80 was intraperitoneally administered. The experiments were conducted using 5 mice per group for each of the drug-administered group and the control group. On day 15, white adipose tissues were collected from the mice of the drug-administered group and the control group, and were examined for expression levels of mRNA using GeneChip (Affymetrix) Murine Genome U74A. The experimental operation was conducted in accordance with GeneChip Expression Analysis Technical Manual, and the quantitative analysis was conducted using GeneChip Software.

[1] = tested on: griPGHS (Glucocorticoid-regulated inflammatory prostaglandin G/H synthase); test: as above; assay type: in vivo, mouse; conditions: day 15, 200 mg/kg i.p. once a day for 15 days, BDF1 mice, Accession M88242
Method: as §2

Interleukin-6 = test: as above; assay type: in vivo, mouse; conditions: day 15, 200 mg/kg i.p. once a day for 15 days, BDF1 mice, Accession X54542
Method: as §2

With `N#Cc1ccc(S(=O)(=O)Nc2cccc3c(Cl)c[nH]c23)cc1` [Compound 10, N-(3-Chloro-1H-indol-7-yl)-4-cyanobenzenesulfonamide] the body weight (BDF1 mice) was “increased”, the food intake (BDF1 mice) was “increased” and the body weight increase (mice) was “body weight increase depending on dose”. The “condition of the mice” value (mice) was “quite normal condition” and the toxicity (mice) was “no observation indicating toxicity”.
In the case of `N#Cc1c[nH]c2c(NS(=O)(=O)c3cccc(Cl)c3)cccc12` [Compound 17, 3-Chloro-N-(3-cyano-1H-indol-7-yl)benzenesulfonamide], the body weight (BDF1 mice) is reported as “increased”, the food intake (BDF1 mice) is reported as “increased” and the “Expression level ratio (drug-administered group/control group), Interleukin-1-beta mRNA” value (Interleukin-1-beta) is reported as 22%. For the same compound, the “Expression level ratio (drug-administered group/control group), griPGHS mRNA” value [1] was 26%, the “Expression level ratio (drug-administered group/control group), Interleukin-6 mRNA” value (Interleukin-6) was 24% and the body weight increase (mice) was “body weight increase depending on dose”. The “condition of the mice” value (mice) was “quite normal condition” and the toxicity (mice) was “no observation indicating toxicity”.
With `N#Cc1cccc(S(=O)(=O)Nc2cccc3c(C#N)c[nH]c23)c1` [Compound 51, 3-Cyano-N-(3-cyano-1H-indol-7-yl)benzenesulfonamide] the body weight (BDF1 mice) was “increased”, the food intake (BDF1 mice) was “increased” and the body weight increase (mice) was “body weight increase depending on dose”. The “condition of the mice” value (mice) was “quite normal condition” and the toxicity (mice) was “no observation indicating toxicity”.
With `Cc1ccc(NS(=O)(=O)c2cccc(C#N)c2)c2[nH]cc(C#N)c12` [Compound 94, 3-Cyano-N-(3-cyano-4-methyl-1H-indol-7-yl)-benzenesulfonamide] the body weight (BDF1 mice) was “increased”, the food intake (BDF1 mice) was “increased” and the body weight increase (mice) was “body weight increase depending on dose”. The “condition of the mice” value (mice) was “quite normal condition” and the toxicity (mice) was “no observation indicating toxicity”.
